Read-outs that look alike come from different tables or passages of the source. Marks after values point to notes of the source that are not given here.
What was measured:
[1] = tested on: BN rats; assay: Bronchial hyperresponsiveness of ovalbumin sensitized, antigen challenged BN rats (tracheal rings, acetylcholine); assay type: in vivo; conditions: 3.0 mg/kg po, 2 hours pre-challenge, mean ± SE
Text: Bronchial hyperresponsiveness (BHR) and airway eosinophilia (AEP) are characteristic features of bronchial asthma. BHR is typified by an exaggerated response to a wide variety of stimuli that can induce an increased resistance to airflow in the airways. AEP is a result of prolonged eosinophil infiltration, mast cell, and T cell activation in the airways. In actively (e.g., ovalbumin) immunized rats (e.g., Brown Norway [BN] strain), repeated sensitization followed by antigenic challenge results in lung eosinophilia and bronchial hyperresponsiveness to different spasmogens (e.g., acetylcholine). This is the most frequently employed model for studying potential anti-asthmatic effects of new chemical entities.
BN rats were actively immunized with allergen (ovalbumin). On day one, rats were sensitized with the subcutaneous administration of ovalbumin suspended in Al(OH)3 (2.5 μg ovalbumin +20 mg Al(OH)3 in 0.5 ml saline). Booster injections (same dose and same route) were given at day 14 and 21. Simultaneously at each occasion 0.25 ml of Bordatella pentussis vaccine was injected intraperitoneally. On day 28, animals were challenged by inhalation of the antigen (vaporized 1% OVA solution for 1 hour). Test compounds were administered orally 2 hours pre-challenge.
48 hours following challenge, they were sacrificed by an overdose of urethane (4-5 ml of 15% urethane given i.p.), bronchoalveolar lavage fluid (BALF) was obtained, and tracheae dissected from the animals. Eosinophil cell count (cells/ml BALF) was determined manually using a selective stain for eosinophils and counting the cells in a Buerker chamber. BHR was determined using tracheal rings suspended in an organ bath. After an equilibration period of 30 minutes, cumulative concentration response curves to acetylcholine were determined. Maximal response of control (unchallenged, non-treated) tracheal rings is obtained at 10^−3 M acetylcholine. The height of this response is defined as 100%. All other contractions are expressed as a percentage and related to the control response.

[2] = tested on: AMPA receptors; assay: Inhibition of AMPA induced spreading depression in isolated chicken retina; assay type: cell-based; conditions: AMPA (5 μM)
Outline: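 Isolated chicken retina; spreading depression evoked by 5 μM AMPA. Antagonism read as prolongation of the latency to spreading-depression onset.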

[3] = tested on: CD1 mice; assay: Anticonvulsant activity, 4-aminopyridine induced seizures; assay type: in vivo; conditions: Mus musculus; po.; read-out: 4-AP ED50
Outline: (§1)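 Male CD1 mice (10 per dose) received test compounds orally at three dose levels, usually 60 min before chemical induction of clonic-tonic seizures and lethality.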

[4] = tested on: CD1 mice; assay: Anticonvulsant activity, nicotine induced seizures; assay type: in vivo; conditions: Mus musculus; po.
Outline: as §1

[5] = tested on: Lewis rats; assay: Autoimmune encephalomyelitis model, neurological (clinical) symptoms; assay type: in vivo; conditions: for Neurological symptoms (change, %): day 24 after immunization; for change in vivo at 0.2 mg/kg / change in vivo at 0.5 mg/kg / change in vivo at 1 mg/kg / change in vivo at 1.875 mg/kg / change in vivo at 3.75 mg/kg / change in vivo at 15 mg/kg / change in vivo at 30 mg/kg: Rattus norvegicus, read-out: Neurological symptoms (change compared to controls, %); for change in vivo at 15 mg/kg: 15 mg/kg ip.
[6] = tested on: CD1 mice; assay: Anticonvulsant activity, strychnine induced seizures; assay type: in vivo; conditions: Mus musculus; po.; read-out: Strychnine ED50
Outline: as §1

[7] = tested on: AMPA/kainate receptors; assay: Inhibition of AMPA induced whole-cell current in acutely isolated cerebellar Purkinje cells (patch clamp); assay type: cell-based; conditions: 5 μM AMPA, read-out: Inhibition of the ion-currents caused by 5 μM AMPA, IC50
Outline: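 Whole-cell patch-clamp on acutely isolated cerebellar Purkinje cells; current evoked by 5 μM AMPA, with compound activity measured as inhibition of this AMPA-induced current.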

[8] = tested on: Lewis rats; assay: Autoimmune encephalomyelitis model, histological symptoms; assay type: in vivo; conditions: day 24 after immunization; for Histological symptoms (change, %): 30 mg/kg ip.
Procedure: 5-15 animals were used in each group. Their weights were 160-180 g (Lewis rats, female) and 180-220 g (Lewis rats, male). The activity of the compounds was determined according to the symptom score values, and compared to those of the control group (see Table 6). Histopathological investigations were carried out on the brain stem, the spinal cord, and the sciatic nerve (Gijbels et al., J. Clin. Invest. 94:2177 (1994)) using 5-10 animal/group.
Compounds of the invention were further investigated in the autoimmune encephalomyelitis model in rats as outlined in this description before, with the variance that 10 animals were used in each group, of weights 140-160 g (Lewis rats, female).

[9] = tested on: CD1 mice; assay: Anticonvulsant activity, maximal electroshock seizure (MES) test; assay type: in vivo; conditions: Mus musculus, po.
[10] = tested on: CD1 mice; assay: Anti-tremor effect, oxotremorine induced tremor; assay type: in vivo; conditions: Mus musculus; po., Litchfield-Wilcoxon, limits in brackets; read-out: ED50, tremor induced by Oxotremorin 1 mg/kg ip.
[11] = 0.5 h, 30′, read-out: MES 30′ ED50
[12] = 1 h, 60 min before induction, read-out: MES (MES 60′) ED50

Cc1nnc(N2N=C(c3ccc(N)c(C)c3)c3cc4c(cc3C[C@H]2C)OCO4)s1 [Example 119, (R)-5-(4-amino-3-methylphenyl)-8-methyl-7-(5-methyl-1,3,4-thiadiazol-2-yl)-8,9-dihydro-7H-1,3-dioxolo-[4,5-h][2,3]benzodiazepine]
MAX: relative contraction compared to the control at a maximal Ach concentration [1]: 82 ± 7%
pEC50 of acetylcholine [1]: 4.35 ± 0.36 −log M
IC50 [2]: 69 nM
ED50 [3]: 2.68 mg/kg
ED50 [4]: 6.3 mg/kg
Neurological symptoms (change, %) ([5]; 0.2 mg/kg i.p., female rats): −37%
Neurological symptoms (change, %) ([5]; 0.5 mg/kg i.p., female rats): −35%
Neurological symptoms (change, %) ([5]; 0.5 mg/kg p.o., female rats): −1%
Neurological symptoms (change, %) ([5]; 1.0 mg/kg i.p., female rats): −72** %
Neurological symptoms (change, %) ([5]; 1.0 mg/kg p.o., female rats): −23%
Neurological symptoms (change, %) ([5]; 1.875 mg/kg ip., female rats): −71** %
Neurological symptoms (change, %) ([5]; 1.875 mg/kg p.o., female rats): −50** %
Neurological symptoms (change, %) ([5]; 3.75 mg/kg ip., female rats): −90** %
Neurological symptoms (change, %) ([5]; 3.75 mg/kg p.o., female rats): −61*** %
change in vivo at 0.2 mg/kg ([5]; ip, 0.2 mg/kg i.p., female rats, 0-8 day): -36%
change in vivo at 0.2 mg/kg ([5]; ip, 0.2 mg/kg i.p., female rats, 0-14 day): -37%
change in vivo at 0.5 mg/kg ([5]; ip, 0.5 mg/kg i.p., female rats, 0-8 day): -33%
change in vivo at 0.5 mg/kg ([5]; ip, 0.5 mg/kg i.p., female rats, 0-14 day): -35%
change in vivo at 1 mg/kg ([5]; ip, 1.0 mg/kg i.p., female rats, 0-8 day): -75%
change in vivo at 1 mg/kg ([5]; ip, 1.0 mg/kg i.p., female rats, 0-14 day): -72%
change in vivo at 1.875 mg/kg ([5]; ip, 1.875 mg/kg ip., female rats, 0-8 day): -72%
change in vivo at 1.875 mg/kg ([5]; ip, 1.875 mg/kg ip., female rats, 0-14 day): -71%
change in vivo at 3.75 mg/kg ([5]; ip, 3.75 mg/kg ip., female rats, 0-8 day): -97%
change in vivo at 3.75 mg/kg ([5]; ip, 3.75 mg/kg ip., female rats, 0-14 day): -90%
change in vivo at 0.5 mg/kg ([5]; po, 0.5 mg/kg p.o., female rats, 0-8 day): 2%
change in vivo at 0.5 mg/kg ([5]; po, 0.5 mg/kg p.o., female rats, 0-14 day): -1%
change in vivo at 1 mg/kg ([5]; po, 1.0 mg/kg p.o., female rats, 0-8 day): -20%
change in vivo at 1.875 mg/kg ([5]; po, 1.875 mg/kg p.o., female rats, 0-8 day): -50%
change in vivo at 1.875 mg/kg ([5]; po, 1.875 mg/kg p.o., female rats, 0-14 day): -50%
ED50 [6]: 8.4 mg/kg
IC50 [7]: 26 nM
Histopathological symptoms (change %) ([8]; 0.2 mg/kg i.p., female rats): +2%
Histopathological symptoms (change %) ([8]; 0.5 mg/kg i.p., female rats): −13%
Histopathological symptoms (change %) ([8]; 0.5 mg/kg p.o., female rats): −16%
Histopathological symptoms (change %) ([8]; 1.0 mg/kg i.p., female rats): −3%
Histopathological symptoms (change %) ([8]; 1.0 mg/kg p.o., female rats): −21%
Histological (histopathological) symptoms (change, %) ([8]; 1.875 mg/kg ip., female rats): −8%
Histopathological symptoms (change %) ([8]; 1.875 mg/kg p.o., female rats): −42%
Histological (histopathological) symptoms (change, %) ([8]; 3.75 mg/kg ip., female rats): +3%
Histopathological symptoms (change %) ([8]; 3.75 mg/kg p.o., female rats): −32%
ED50 [9, 11]: 2.15 mg/kg
ED50 [9, 12]: 2.87 mg/kg
ED50 [10]: 1.38 mg/kg

CC(=O)N1N=C(c2ccc(N)cc2)c2cc3c(cc2C[C@H]1C)OCO3 [GYKI 53773, (R)-7-acetyl-5-(4-aminophenyl)-8,9-dihydro-8-methyl-7H-1,3-dioxolo[4,5-h][2,3]benzodiazepine, reference compound]
MAX: relative contraction compared to the control at a maximal Ach concentration [1]: 85 ± 43%
IC50 [2]: 1200 nM
ED50 [3]: 8.4 mg/kg
ED50 [4]: 22.7 mg/kg
Neurological symptoms (change, %) ([5]; 30 mg/kg ip., female rats): −41%
Neurological symptoms (change, %) ([5]; 30 mg/kg ip., male rats): −26%
change in vivo at 15 mg/kg ([5]; ip, female rats, 0-8 day): -60%
change in vivo at 15 mg/kg ([5]; ip, female rats, 0-14 day): -63%
change in vivo at 15 mg/kg ([5]; ip, male rats, 0-8 day): -8%
change in vivo at 15 mg/kg ([5]; ip, male rats, 0-14 day): 7%
change in vivo at 30 mg/kg ([5]; ip, 30 mg/kg ip., female rats, 0-8 day): -38%
change in vivo at 30 mg/kg ([5]; ip, 30 mg/kg ip., female rats, 0-14 day): -27%
change in vivo at 30 mg/kg ([5]; ip, 30 mg/kg ip., male rats, 0-8 day): -43%
change in vivo at 30 mg/kg ([5]; ip, 30 mg/kg ip., male rats, 0-14 day): -29%
ED50 [6]: 17.4 mg/kg
IC50 [7]: 1570 nM
Histological symptoms (change, %) ([8]; female rats): −16%
Histological symptoms (change, %) ([8]; male rats): +34%
ED50 [9, 11]: 4.9 mg/kg
ED50 [9, 12]: 8.6 mg/kg
ED50 [10]: 5.6 mg/kg

Source: patent publication US20070027143A1, “Novel substituted 2,3-benzodiazepine derivatives” (priority 2003, published 2007)
